Experimental data as given in patent US20230210831A1, “CHRONIC KIDNEY DISEASE TREATMENT OR PREVENTION METHOD” (Japan Tobacco Inc., priority 2019, published 2023).

Key:
Format in all cases: cell-based
[1] = tested on: Salmonella typhimurium TA100; assay: Ames test (reverse mutation test), TA100
Protocol: (§1) The solvent used herein was dimethyl sulfoxide (DMSO, 100 µL/plate).
(§2) The mixtures were preincubated at 37° C. for 20 minutes while shaking. […] Two plates per treatment were used.

[2] = tested on: Salmonella typhimurium TA1535; assay: Ames test (reverse mutation test), TA1535
Protocol: as §1, §2

Escherichia coli WP2uvrA = assay: Ames test (reverse mutation test), WP2uvrA; conditions: WP2uvrA
Protocol: as §1, §2

[3] = tested on: Salmonella typhimurium TA1537; assay: Ames test (reverse mutation test), TA1537
Protocol: as §1, §2

[4] = tested on: Salmonella typhimurium (TA98, TA1537, TA100, and TA1535) and Escherichia coli (WP2uvrA); assay: Ames test (reverse mutation test), overall conclusion over all tester strains; conditions: all bacterial tester strains, with and/or without S9 mix
Protocol: as §1, §2
Details are explained as follows.

[5] = tested on: Salmonella typhimurium TA98; assay: Ames test (reverse mutation test), TA98
Protocol: as §1, §2

Nc1cc(-c2cc(F)cc(OC(F)(F)F)c2)n(-c2cncc(C(F)(F)F)c2)n1 [Metabolite 5]
Number of revertant colonies ([1]; TA100, +S9 mix, 6.9 µg/plate): 134 | Number of revertant colonies ([1]; TA100, +S9 mix, 21 µg/plate): 123 | Number of revertant colonies ([1]; TA100, +S9 mix, 62 µg/plate): 108 | Number of revertant colonies ([1]; TA100, +S9 mix, 185 µg/plate): 103 | Number of revertant colonies ([1]; TA100, +S9 mix, 556 µg/plate): 99 | Number of revertant colonies ([1]; TA100, +S9 mix, 1667 µg/plate): 67 | Number of revertant colonies ([1]; TA100, +S9 mix, 5000 µg/plate): 43 | Number of revertant colonies ([1]; TA100, -S9 mix, 6.9 µg/plate): 88 | Number of revertant colonies ([1]; TA100, -S9 mix, 21 µg/plate): 91 | Number of revertant colonies ([1]; TA100, -S9 mix, 62 µg/plate): 93 | Number of revertant colonies ([1]; TA100, -S9 mix, 185 µg/plate): 92 | Number of revertant colonies ([1]; TA100, -S9 mix, 556 µg/plate): 59 | Number of revertant colonies ([1]; TA100, -S9 mix, 1667 µg/plate): 29 | Number of revertant colonies ([1]; TA100, -S9 mix, 5000 µg/plate): 12 | Number of revertant colonies ([2]; TA1535, +S9 mix, 62 µg/plate): 10 | Number of revertant colonies ([2]; TA1535, -S9 mix, 5000 µg/plate): 4 | Number of revertant colonies (Escherichia coli WP2uvrA; +S9 mix, 6.9 µg/plate): 22 | Number of revertant colonies (Escherichia coli WP2uvrA; +S9 mix, 21 µg/plate): 22 | Number of revertant colonies (Escherichia coli WP2uvrA; +S9 mix, 62 µg/plate): 21 | Number of revertant colonies (Escherichia coli WP2uvrA; +S9 mix, 185 µg/plate): 21 | Number of revertant colonies (Escherichia coli WP2uvrA; +S9 mix, 556 µg/plate): 18 | Number of revertant colonies (Escherichia coli WP2uvrA; +S9 mix, 1667 µg/plate): 21 | Number of revertant colonies (Escherichia coli WP2uvrA; +S9 mix, 5000 µg/plate): 19 | Number of revertant colonies (Escherichia coli WP2uvrA; -S9 mix, 6.9 µg/plate): 23 | Number of revertant colonies (Escherichia coli WP2uvrA; -S9 mix, 21 µg/plate): 15 | Number of revertant colonies (Escherichia coli WP2uvrA; -S9 mix, 62 µg/plate): 23 | Number of revertant colonies (Escherichia coli WP2uvrA; -S9 mix, 185 µg/plate): 20 | Number of revertant colonies (Escherichia coli WP2uvrA; -S9 mix, 556 µg/plate): 22 | Number of revertant colonies (Escherichia coli WP2uvrA; -S9 mix, 1667 µg/plate): 19 | Number of revertant colonies (Escherichia coli WP2uvrA; -S9 mix, 5000 µg/plate): 14 | Number of revertant colonies ([3]; TA1537, +S9 mix, 6.9 µg/plate): 13 | Number of revertant colonies ([3]; TA1537, +S9 mix, 21 µg/plate): 11 | Number of revertant colonies ([3]; TA1537, +S9 mix, 62 µg/plate): 12 | Number of revertant colonies ([3]; TA1537, +S9 mix, 185 µg/plate): 12 | Number of revertant colonies ([3]; TA1537, +S9 mix, 556 µg/plate): 8 | Number of revertant colonies ([3]; TA1537, +S9 mix, 1667 µg/plate): 3 | Number of revertant colonies ([3]; TA1537, +S9 mix, 5000 µg/plate): 1 | Number of revertant colonies ([3]; TA1537, -S9 mix, 6.9 µg/plate): 8 | Number of revertant colonies ([3]; TA1537, -S9 mix, 21 µg/plate): 7 | Number of revertant colonies ([3]; TA1537, -S9 mix, 62 µg/plate): 8 | Number of revertant colonies ([3]; TA1537, -S9 mix, 185 µg/plate): 7 | Number of revertant colonies ([3]; TA1537, -S9 mix, 556 µg/plate): 2 | Number of revertant colonies ([3]; TA1537, -S9 mix, 1667 µg/plate): 3 | Number of revertant colonies ([3]; TA1537, -S9 mix, 5000 µg/plate): 2 | potential to induce reverse mutations [4]: did not show potential to induce reverse mutations | Number of revertant colonies ([5]; TA98, +S9 mix, 6.9 µg/plate): 36 | Number of revertant colonies ([5]; TA98, +S9 mix, 21 µg/plate): 38 | Number of revertant colonies ([5]; TA98, +S9 mix, 62 µg/plate): 38 | Number of revertant colonies ([5]; TA98, +S9 mix, 185 µg/plate): 33 | Number of revertant colonies ([5]; TA98, +S9 mix, 556 µg/plate): 27 | Number of revertant colonies ([5]; TA98, +S9 mix, 1667 µg/plate): 25 | Number of revertant colonies ([5]; TA98, +S9 mix, 5000 µg/plate): 17 | Number of revertant colonies ([5]; TA98, -S9 mix, 6.9 µg/plate): 29 | Number of revertant colonies ([5]; TA98, -S9 mix, 21 µg/plate): 28 | Number of revertant colonies ([5]; TA98, -S9 mix, 62 µg/plate): 29 | Number of revertant colonies ([5]; TA98, -S9 mix, 185 µg/plate): 26 | Number of revertant colonies ([5]; TA98, -S9 mix, 556 µg/plate): 24 | Number of revertant colonies ([5]; TA98, -S9 mix, 1667 µg/plate): 18 | Number of revertant colonies ([5]; TA98, -S9 mix, 5000 µg/plate): 14
